Here are results for one compound from patent US8133851B2, “Heteroaroyl-substituted serine amides” (BASF SE, priority 2007, dated 2012).

What is called melting point is the temperature, or range, at which the solid turns liquid.

Molecules are shown by their SMILES.

As for `CNC(=O)C(NC(=O)c1cn(C)nc1C(F)(F)F)C1(OC(=O)N(C)C)CCC1` (stereo not shown) [Example 1, Dimethylcarbamic acid 1-{methylcarbamoyl-[(1-methyl-3-trifluoromethyl-1H-pyrazole-4-carbonyl)amino]methyl}cyclobutyl ester], the melting point stood at 190 °C.
